The target of one assay is T1, EPS15 (Homo sapiens, UniProt P42566).
T1 construct: endogenous in cells; host or cells: Jurkat E6.1
T1 sequence (P42566 1-896): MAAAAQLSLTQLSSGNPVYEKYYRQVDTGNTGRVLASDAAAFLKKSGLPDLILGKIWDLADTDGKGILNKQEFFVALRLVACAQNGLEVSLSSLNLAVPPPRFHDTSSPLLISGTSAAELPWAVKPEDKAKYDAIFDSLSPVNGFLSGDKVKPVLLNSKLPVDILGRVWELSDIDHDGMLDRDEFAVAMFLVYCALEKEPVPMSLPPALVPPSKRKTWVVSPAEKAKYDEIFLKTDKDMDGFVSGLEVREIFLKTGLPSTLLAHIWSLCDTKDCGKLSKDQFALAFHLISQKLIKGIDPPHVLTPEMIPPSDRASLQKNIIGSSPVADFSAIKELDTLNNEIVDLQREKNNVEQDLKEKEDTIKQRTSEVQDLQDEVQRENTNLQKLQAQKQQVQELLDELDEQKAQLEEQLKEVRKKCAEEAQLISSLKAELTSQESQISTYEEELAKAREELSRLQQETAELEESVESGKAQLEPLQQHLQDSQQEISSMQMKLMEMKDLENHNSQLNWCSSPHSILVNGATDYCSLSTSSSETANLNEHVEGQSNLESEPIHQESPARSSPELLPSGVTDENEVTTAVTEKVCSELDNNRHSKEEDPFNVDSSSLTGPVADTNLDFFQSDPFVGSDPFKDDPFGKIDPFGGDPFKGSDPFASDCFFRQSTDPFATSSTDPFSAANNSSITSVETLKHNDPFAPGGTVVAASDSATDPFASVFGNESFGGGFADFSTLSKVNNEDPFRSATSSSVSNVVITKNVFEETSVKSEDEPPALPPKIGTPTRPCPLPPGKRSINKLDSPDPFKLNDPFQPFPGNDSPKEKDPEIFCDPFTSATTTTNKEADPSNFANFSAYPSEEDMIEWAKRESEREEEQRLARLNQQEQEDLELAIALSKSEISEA
Nature of the assay: Titration nHU, Western blot, endogenous EPS15 in Jurkat extract. The class given is binding. The note with it: source data of Fig 5, titration nHU, unit inferred. The source says:
(§1) To identify the partners of NPF motifs, we used the native holdup (nHU) assay that was recently developed by our team (Fig. 1B). The holdup approach has been extensively used to determine equilibrium dissociation constants of transient interactions mediated by PDZ and SH3 domains, 14-3-3, and human papilloma virus E6 proteins, and even nucleic acid-protein interactions[7],[30]–[35]. In the nHU experiments, a purified bait molecule, or a control compound, is immobilized on a resin at high concentration (typically 10 μM, or higher) and these resin stocks are subsequently mixed with dilute cell extracts. After a relatively long incubation, i.e., 2 h at 4 °C, the liquid phase is separated by centrifugation. This liquid phase contains the unbound prey molecules at near binding equilibrium that can be quantified using selective and quantitative analytical approaches, such as mass spectrometry. Therefore, proteins that interact with the bait molecule will appear to be depleted in the solvent phase and by measuring its relative concentration compared to the control nHU experiment, the degree of binding (θ) can be determined that can be converted to apparent steady-state dissociation constants, according to:1 θ=1−Ifree/Itot=Cbait/Cbait+Kapp where Itot and Ifree are the measured total and bait-depleted equilibrium mass spectrometry total ion intensities of prey proteins, Cbait is the bait molecule concentration and Kapp is the apparent dissociation constant.
(§2) Jurkat E6.1 cells (ECACC #88042803, RRID: CVCL_0367) were grown in RPMI (Gibco) medium completed with 10% FBS (Gibco BRL) and 40 μg/ml gentamicin (Gibco/Life Technology). To prepare total cell extracts, Jurkat cells were seeded onto T-175 flasks and grew until 3 × 10^6 cells/ml confluency. Cells were collected by 1000 g x 5 min centrifugation, washed with PBS and then lysed in ice-cold lysis buffer (Hepes-KOH pH 7.5 50 mM, NaCl 150 mM, Triton X-100 1%, cOmplete EDTA-free protease inhibitor cocktail 5x, TCEP 5 mM, glycerol 10%).
(§3) Cell suspensions were sonicated 4×20 sec with 1 sec long pulse on ice, then incubated rotating at 4 °C for 30 min. The lysates were centrifuged at 12,000 rpm 4 °C for 20 min and supernatant was kept. Total protein concentration was measured by standard Bradford method (Bio-Rad Protein Assay Dye Reagent #5000006) using a BSA calibration curve (MP Biomedicals #160069, diluted in lysis buffer) on a Bio-Rad SmartSpec 3000 spectrophotometer instrument.
(§4) Titration holdup experiments were carried out as described above using 25 μl saturated resins prepared. Briefly, we mixed control, or bait-saturated resins at various proportions by keeping the total resin amount and resin-analyte ratio constant during the experiment (for 25 μl we used 100 μl cell extract as analyte). In titration experiments with protein baits, bait concentration was determined as described above for the saturated resin stocks. Experiments were carried out at 4 °C for 2 h and recovered supernatants were subjected to western blot or dot blot analysis.
For Western blot, samples were mixed with 4x Laemmli Sample Buffer in 3:1 ratio. Equal amounts of samples were loaded on 6-10% acrylamide-gels (generally 16 μg). Transfer was done into PVDF membranes using a Trans-Blot Turbo Transfer System and Trans-Blot Turbo RTA Transfer Kit (BioRad, #1704275). For Dot blot, nHU samples were directly loaded on Nitrocellulose membranes using 48 Sample vacuum manifold (Cleaver Scientific) following the manufacturer’s recommendations. […]
(A western blot detects proteins with antibodies after separation by electrophoresis.)

The next assay deals with POLE. Nature of the assay: Titration nHU, Western blot, endogenous POLE in Jurkat extract. The format is binding, human. The following applies: source data of Fig 5, titration nHU, Jurkat extract; unit inferred.
From the text: as §1, §2, §3, §4
For Western blot, samples were mixed with 4x Laemmli Sample Buffer in 3:1 ratio. Equal amounts of samples were loaded on 6-10% acrylamide-gels (generally 16 μg). Transfer was done into PVDF membranes using a Trans-Blot Turbo Transfer System and Trans-Blot Turbo RTA Transfer Kit (BioRad, #1704275). For Dot blot, nHU samples were directly loaded on Nitrocellulose membranes using 48 Sample vacuum manifold (Cleaver Scientific) following the manufacturer’s recommendations.
After 1 h of blocking in 5% milk, membranes were incubated overnight at 4 °C with primary antibodies in 5% milk-TBS-Tween.

Consider four molecules from PMC12808100, “The non-catalytic DNA polymerase ε subunit is an NPF motif recognition protein” (Nature Communications, 2025).

Residues, ends and D or L forms follow the SMILES beside them.

What is called Kd is a measure of binding affinity in units of concentration. Low readings indicate higher affinity, high ones lower affinity. Regarding `CC(C)C[C@H](NC(=O)[C@H](CCCNC(=N)N)NC(=O)[C@H](C)NC(=O)[C@H](Cc1ccccc1)NC(=O)[C@@H]1CCCN1C(=O)[C@H](CC(N)=O)NC(=O)[C@H](CCCNC(=N)N)NC(=O)[C@H](CCCNC(=N)N)NC(=O)[C@H](C)NC(=O)[C@H](C)NC(=O)[C@H](CC(=O)O)NC(=O)[C@H](CC(C)C)NC(=O)[C@H](CCCNC(=N)N)NC(=O)[C@H](C)NC(=O)[C@H](Cc1ccccc1)NC(=O)[C@@H]1CCCN1C(=O)[C@H](CC(N)=O)NC(=O)[C@H](CCCNC(=N)N)NC(=O)[C@H](CCCNC(=N)N)NC(=O)[C@H](C)NC(=O)[C@H](CC(=O)O)NC(=O)[C@H](CC(C)C)NC(=O)[C@H](CCCNC(=N)N)NC(=O)[C@H](C)NC(=O)[C@H](Cc1ccccc1)NC(=O)[C@@H]1CCCN1C(=O)[C@H](CC(N)=O)NC(=O)[C@H](CCCNC(=N)N)NC(=O)[C@H](CCCNC(=N)N)NC(=O)[C@H](C)NC(=O)[C@H](C)NC(=O)CCCCCNC(=O)CCCC[C@@H]1SC[C@@H]2NC(=O)N[C@@H]21)C(=O)N[C@@H](CC(=O)O)C(N)=O` [3xDONSON] (HELM PEPTIDE1{[O=C1N[C@H]2[C@H](CS[C@H]2CCCCC(=O)[*:2])N1].[O=C(CCCCCN[*:1])[*:2]].A.A.R.R.N.P.F.A.R.L.D.A.R.R.N.P.F.A.R.L.D.A.A.R.R.N.P.F.A.R.L.D.[am]}$$$$V2.0), the dissociation constant (Kd) on EPS15 was 0.8 µM; with POLE, 0.1 µM.
As to `C[C@H](NC(=O)[C@H](C)NC(=O)[C@@H]1CCCN1C(=O)CNC(=O)CCCCCNC(=O)CCCC[C@@H]1SC[C@@H]2NC(=O)N[C@@H]21)C(=O)N[C@@H](C)C(=O)N[C@@H](CCCNC(=N)N)C(=O)N[C@@H](CCCNC(=N)N)C(=O)N[C@@H](CC(N)=O)C(=O)N1CCC[C@H]1C(=O)N[C@@H](Cc1ccccc1)C(=O)N[C@@H](CO)C(=O)N[C@@H](CC(=O)O)C(=O)N[C@@H](CCCNC(=N)N)C(=O)N[C@@H](CC(=O)O)C(=O)N[C@@H](CC(N)=O)C(=O)N[C@@H](CCCNC(=N)N)C(=O)N1CCC[C@H]1C(=O)N[C@@H](CCCNC(=N)N)C(N)=O` [DONSON_SYNJ1_C] (HELM PEPTIDE1{[O=C1N[C@H]2[C@H](CS[C@H]2CCCCC(=O)[*:2])N1].[O=C(CCCCCN[*:1])[*:2]].G.P.A.A.A.R.R.N.P.F.S.D.R.D.N.R.P.R.[am]}$$$$V2.0), the figures for the Kd at EPS15 and in the assay on POLE were greater than 20 µM and 8.5 µM, respectively.
Regarding `C[C@H](NC(=O)[C@H](C)NC(=O)[C@@H]1CCCN1C(=O)CNC(=O)CCCCCNC(=O)CCCC[C@@H]1SC[C@@H]2NC(=O)N[C@@H]21)C(=O)N[C@H](C(=O)N[C@@H](CCCNC(=N)N)C(=O)N[C@H](C(=O)N[C@@H](CC(N)=O)C(=O)N1CCC[C@H]1C(=O)N[C@@H](Cc1ccccc1)C(=O)N[C@@H](CO)C(=O)N[C@@H](CC(=O)O)C(=O)N[C@@H](CCCNC(=N)N)C(=O)N[C@@H](CC(=O)O)C(=O)N[C@@H](CC(N)=O)C(=O)N[C@@H](CCCNC(=N)N)C(=O)N1CCC[C@H]1C(=O)N[C@@H](CCCNC(=N)N)C(N)=O)[C@@H](C)O)[C@@H](C)O` [DONSON_SYNJ1_NC] (HELM PEPTIDE1{[O=C1N[C@H]2[C@H](CS[C@H]2CCCCC(=O)[*:2])N1].[O=C(CCCCCN[*:1])[*:2]].G.P.A.A.T.R.T.N.P.F.S.D.R.D.N.R.P.R.[am]}$$$$V2.0), the Kd on EPS15 and in the assay on POLE was greater than 200 µM in each case.
On to `CC(C)C[C@H](NC(=O)[C@H](CCCNC(=N)N)NC(=O)[C@H](C)NC(=O)[C@H](Cc1ccccc1)NC(=O)[C@@H]1CCCN1C(=O)[C@H](CC(N)=O)NC(=O)[C@@H](NC(=O)[C@H](CCCNC(=N)N)NC(=O)[C@@H](NC(=O)[C@H](C)NC(=O)[C@H](C)NC(=O)[C@@H]1CCCN1C(=O)CNC(=O)CCCCCNC(=O)CCCC[C@@H]1SC[C@@H]2NC(=O)N[C@@H]21)[C@@H](C)O)[C@@H](C)O)C(=O)N[C@@H](CC(=O)O)C(=O)N[C@@H](CC(N)=O)C(=O)N[C@@H](CCCNC(=N)N)C(=O)N1CCC[C@H]1C(=O)N[C@@H](CCCNC(=N)N)C(N)=O` [DONSON_SYNJ1_N] (HELM PEPTIDE1{[O=C1N[C@H]2[C@H](CS[C@H]2CCCCC(=O)[*:2])N1].[O=C(CCCCCN[*:1])[*:2]].G.P.A.A.T.R.T.N.P.F.A.R.L.D.N.R.P.R.[am]}$$$$V2.0), for which the Kd on EPS15 was greater than 30 µM; in the assay with POLE, 9.4 µM.
